Starred links: 1 amine or outer side, 2 acyl side, 3 side chain; linkers in the order of their positions; H or OH if unused. Positions of bridges follow the written chain, without caps; N, C: chain ends. Non-standard residues stand in square brackets, D forms with d. Chains are numbered I, II in the order given. X3 = O=C(CCCc1ccc(I)cc1)NCCOCCOCCOCCOCCOCCOCCOCCOCCOCCOCCn1cc(CCC(=O)NC(COCCC(=O)NCCOCCOCCOCCOCCOCCOCCOCCOCCOCCOCCn2cc(CCC(=O)[*:1])nn2)(COCCC(=O)NCCOCCOCCOCCOCCOCCOCCOCCOCCOCCOCCn2cc(CCC(=O)[*:2])nn2)COCCC(=O)NCCOCCOCCOCCOCCOCCOCCOCCOCCOCCOCCn2cc(CCC(=O)[*:3])nn2)nn1; X2 = O=C(CCOCCN(CCOCCC(=O)NCCOCCOCCOCCOCCOCCOCCOCCOCCOCCOCCn1cc(CCC(=O)[*:2])nn1)CCOCCC(=O)NCCOCCOCCOCCOCCOCCOCCOCCOCCOCCOCCn1cc(CCC(=O)[*:3])nn1)NCCOCCOCCOCCOCCOCCOCCOCCOCCOCCOCCn1cc(CCC(=O)[*:1])nn1; X1 = C(c1nc(C[*:2])nc(C[*:3])n1)[*:1]; hArg = N=C(N)NCCCC[C@H](N)C(=O)O; tBuAla = CC(C)(C)C[C@H](N)C(=O)O; Agb = N=C(N)NCC[C@H](N)C(=O)O
How the values were obtained:
[1] = Pharmacokinetic analysis in mouse; assay type: in vivo; settings: 3 mg/kg; for half-life: in vivo
Text: In one embodiment, the multimeric binding complex additionally comprises a half-life extending moiety. References herein to half-life extending moieities refer to any moiety capable of extending the half-life of the resultant multimeric binding complex in vivo when compared to the half-life of said multimeric binding complex in the absence of said half-life extending moiety.

[2] = system: SARS-CoV-2 pseudotyped HIV-1 virions, B.1.1.7 (Alpha)
SARS-CoV-2 = test: Mouse Efficacy Model; assay type: in vivo, male K18-hACE2 mice; settings: 100 mg/kg (tid) for three days, mice infected with SARS-CoV-2

| Substance | half-life improvement ([1]; BCY19602 versus BCY18208 (no half-life extending moiety)) [fold] | half-life [1] [h] | IC50 [2] [nM] | total viral RNA in nasal turbinate (SARS-CoV-2; FIG. 4 (A)) | subgenomic RNA in nasal turbinate (SARS-CoV-2; FIG. 4 (B)) | total viral RNA in lung (SARS-CoV-2; FIG. 4 (C)) | subgenomic RNA in lung (SARS-CoV-2; FIG. 4 (D)) |
| --- | --- | --- | --- | --- | --- | --- | --- |
| I: Ac-CPYVAG[hArg][dA]TCL[tBuAla]CK-NH2 / II: Ac-CPYVAG[hArg][dA]TCL[tBuAla]CK-NH2 / III: Ac-CPYVAG[hArg][dA]TCL[tBuAla]CK-NH2 (linker I:1-I:10-I:13, II:1-II:10-II:13, III:1-III:10-III:13 via X1; linker I:14-II:14-III:14 via X3) [BCY19602] | 10 | 3.1 | – | – | – | – | – |
| I: Ac-CPYVAG[Agb][dA]TCL[tBuAla]CK-NH2 / II: Ac-CPYVAG[Agb][dA]TCL[tBuAla]CK-NH2 / III: Ac-CPYVAG[Agb][dA]TCL[tBuAla]CK-NH2 (linker I:1-I:10-I:13, II:1-II:10-II:13, III:1-III:10-III:13 via X1; linker I:14-II:14-III:14 via X2) [BCY17021] | – | – | 0.3 | reduction of total viral RNA in nasal turbinate | reduction of subgenomic RNA in nasal turbinate | reduction of total viral RNA in lung | reduction of subgenomic RNA in lung |
| I: Ac-CPYVAG[hArg][dA]TCL[tBuAla]CK-NH2 / II: Ac-CPYVAG[hArg][dA]TCL[tBuAla]CK-NH2 / III: Ac-CPYVAG[hArg][dA]TCL[tBuAla]CK-NH2 (linker I:1-I:10-I:13, II:1-II:10-II:13, III:1-III:10-III:13 via X1; linker I:14-II:14-III:14 via X2) [BCY18208] | – | 0.3 | – | – | – | – | – |

Reference: US20240083944A1 (priority 2021, published 2024)
